According to PMC6489322, “Biochemical characterization of recombinant Avihepatovirus 3C protease and its localization” (Virology Journal, 2019):

Biological target: T1, DHAV 3C protease (avihepatovirus A1, UniProt Q076B4)
T1 construct: mature 3C cut from the genome polyprotein (aa 1614-1794, 181 aa); N-terminal His6 tag, pET32a (NdeI/HindIII), E. coli BL21, Ni-NTA; tag removal not described
Assay: FRET peptide cleavage assay, inhibition
Assay type: biochemical
Settings: 5 uM protease, 20 uM Dabcyl-ASFMNQSKVRRFE-Edans; inhibitor at 50 and 100 uM; cleavage buffer (assay optimum pH 7.0, 150 mM NaCl, 37 °C)

Question: How did the “FRET peptide cleavage assay, inhibition” value turn out when `CCOC(=O)/C=C/[C@H](C[C@@H]1CCNC1=O)NC(=O)[C@@H](CC(=O)[C@@H](NC(=O)c1cc(C)on1)C(C)C)Cc1ccc(F)cc1` [AG7088, Rupintrivir] was run?
Answer: The results showed that AG7088 exhibited inhibitory activity against the DHAV 3C protease
